Experimental data reported in article PMC10233829 (ACS Omega, 2023).
In brackets after ≈: the same amount, converted by molar mass. Several values for one entry are separate records, joined by “and”; a condition that tells them apart may be missing. Equal entries are not always repeated. Where two headings read alike, the source gives them in different places.

Key:
[1] = biological target: S. aureus DNA gyrase (Staphylococcus aureus, UniProt P0A0K8+P20831); assay: biochemical; conditions: supercoiling of relaxed pBR322
Chain of S. aureus DNA gyrase (P0A0K8 whole entry): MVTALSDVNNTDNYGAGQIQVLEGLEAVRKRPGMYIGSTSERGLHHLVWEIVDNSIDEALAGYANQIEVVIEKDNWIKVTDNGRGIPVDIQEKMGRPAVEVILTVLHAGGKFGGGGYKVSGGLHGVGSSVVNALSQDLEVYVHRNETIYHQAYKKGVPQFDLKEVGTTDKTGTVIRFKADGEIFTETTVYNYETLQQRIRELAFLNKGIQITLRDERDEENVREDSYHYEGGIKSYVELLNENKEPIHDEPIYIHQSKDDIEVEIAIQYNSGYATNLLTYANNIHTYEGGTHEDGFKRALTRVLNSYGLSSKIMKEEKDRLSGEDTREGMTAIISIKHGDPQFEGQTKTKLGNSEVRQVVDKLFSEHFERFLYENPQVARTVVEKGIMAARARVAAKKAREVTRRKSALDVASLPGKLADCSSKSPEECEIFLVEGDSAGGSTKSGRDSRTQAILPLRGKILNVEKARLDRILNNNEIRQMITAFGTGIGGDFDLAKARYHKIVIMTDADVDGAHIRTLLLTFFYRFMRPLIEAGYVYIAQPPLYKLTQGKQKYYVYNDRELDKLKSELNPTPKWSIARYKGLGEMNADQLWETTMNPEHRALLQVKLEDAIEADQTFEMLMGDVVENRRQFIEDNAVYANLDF
Chain of S. aureus DNA gyrase (P20831 whole entry): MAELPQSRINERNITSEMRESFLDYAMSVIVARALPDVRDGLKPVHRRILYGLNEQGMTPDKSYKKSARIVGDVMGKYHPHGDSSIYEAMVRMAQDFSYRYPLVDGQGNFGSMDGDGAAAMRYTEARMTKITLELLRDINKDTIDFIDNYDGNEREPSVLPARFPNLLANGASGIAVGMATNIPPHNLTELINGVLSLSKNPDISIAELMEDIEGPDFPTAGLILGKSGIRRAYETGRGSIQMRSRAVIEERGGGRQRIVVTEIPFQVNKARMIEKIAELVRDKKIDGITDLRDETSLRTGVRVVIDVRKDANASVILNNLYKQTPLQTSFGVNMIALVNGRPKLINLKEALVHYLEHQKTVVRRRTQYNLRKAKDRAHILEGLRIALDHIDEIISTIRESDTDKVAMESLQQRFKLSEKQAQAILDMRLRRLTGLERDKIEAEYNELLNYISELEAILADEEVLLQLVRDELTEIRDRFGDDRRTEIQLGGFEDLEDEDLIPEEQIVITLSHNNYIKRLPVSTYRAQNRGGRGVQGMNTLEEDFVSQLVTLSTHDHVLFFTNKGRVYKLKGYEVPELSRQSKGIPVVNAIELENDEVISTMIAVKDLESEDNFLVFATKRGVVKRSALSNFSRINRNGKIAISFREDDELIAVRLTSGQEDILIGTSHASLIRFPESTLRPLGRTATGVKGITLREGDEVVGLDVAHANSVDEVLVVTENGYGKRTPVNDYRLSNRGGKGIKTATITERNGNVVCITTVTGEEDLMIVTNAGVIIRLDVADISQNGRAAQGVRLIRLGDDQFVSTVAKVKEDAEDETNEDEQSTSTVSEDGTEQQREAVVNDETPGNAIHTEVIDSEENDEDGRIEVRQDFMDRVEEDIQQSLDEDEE
Protocol: The enzymatic assay was carried using commercial topoisomerases type II as previously described by Alt et al.[55] with some modifications.
Briefly, 1 U of the enzyme (gyrase or topo IV, Inspiralis. Norwich, UK) isolated from S. aureus converts […] of relaxed pBR322 DNA to the supercoiled form (gyrase) or decatenates 200 ng of kinetoplast DNA (topo IV). […] The reactions were terminated by adding an equal volume of STEB buffer (40% sucrose, 100 mM Tris–HCl pH 8, 10 mM EDTA, and 0.5 mg/mL bromophenol blue), followed by extraction with 1 volume of chloroform/isoamyl alcohol (24:1). The samples were vortexed and centrifuged, and 20 μL of the aqueous phase of each sample was loaded onto a 1% agarose gel and left for 30 min prior to electrophoresis to allow diffusion of salt. […] Gels were stained with ethidium bromide and visualized under UV light in a transilluminator (ChemiDoc MP, Bio Rad).

[2] = system: E. coli ATCC 25922; assay: Bacterial growth curve assay (OD600, 18 h); type: cell-based, Escherichia coli; conditions: E. coli, 0.006 μg/mL
[3] = system: E. coli ATCC 25922 biofilm; assay: Biofilm eradication assay (crystal violet); type: cell-based, Escherichia coli; conditions: 4 MIC
Protocol: Three bacterial strains E. coli ATCC 25922, P. aeruginosa ATCC 15442, and S. aureus ATCC 6538 were used to assign biofilm eradication properties of compounds 5, 10, 11, and CP as the reference drug. To quantify the biomass of the bacteria biofilm, the crystal violet method was used with some modifications.[52] The bacteria were incubated to the mid-log phase, diluted to 103 cfu/mL in brain–heart infusion medium, and seeded in a 96-well plate. Bacterial biofilms were formed by overnight incubation at 37 °C with rotation at 140 rpm. After biofilm formation, all wells were washed with PBS to remove nonadherent bacteria cells. […] The biofilms with tested substances were incubated for 20 h at 37 °C with shaking at 140 rpm. The bacterial biofilm was stained with 0.1% (v/v) CV for 10 min. Afterward, the biofilm was rinsed with PBS and dried. To solubilize the adsorbed crystal violet, wells with stained biofilms were incubated in 30% acetic acid. To estimate the total biofilm biomass, optical density (OD) of the resulting solution was measured at 595 nm. Biofilm assays were repeated at least three times on different days, with two technical replicates assessed each time. A minimum eradication concentration (MBEC) was determined as the lowest concentration of compound, which could damage ≥50% of the formed biofilm structure.

[4] = system: P. aeruginosa ATCC 15442 and E. coli ATCC 25922; assay: MIC, standard Gram-negative rods as a panel; type: cell-based; conditions: P. aeruginosa ATCC 15442, E. coli ATCC 25922; for MIC: read-out: MIC against standard Gram-negative rods (range over strains)
[5] = system: P. aeruginosa ATCC 15442; assay: Bacterial growth curve assay (OD600, 18 h); type: cell-based, Pseudomonas aeruginosa; conditions: for dose that fully inhibited bacterial growth: P. aeruginosa ATCC 15442, 18 h; for exponential phase shifted to: P. aeruginosa
[6] = biological target: T1, S. aureus topoisomerase IV (Staphylococcus aureus, UniProt P0C1S7+P0C1U9); assay: Topoisomerase IV decatenation assay; type: biochemical; conditions: decatenation of kinetoplast DNA; read-out: IC50 S. aureus topoisomerase IV (converted)
T1 construct: purchased Inspiralis, Norwich, UK
T1 sequence (P0C1U9 whole entry): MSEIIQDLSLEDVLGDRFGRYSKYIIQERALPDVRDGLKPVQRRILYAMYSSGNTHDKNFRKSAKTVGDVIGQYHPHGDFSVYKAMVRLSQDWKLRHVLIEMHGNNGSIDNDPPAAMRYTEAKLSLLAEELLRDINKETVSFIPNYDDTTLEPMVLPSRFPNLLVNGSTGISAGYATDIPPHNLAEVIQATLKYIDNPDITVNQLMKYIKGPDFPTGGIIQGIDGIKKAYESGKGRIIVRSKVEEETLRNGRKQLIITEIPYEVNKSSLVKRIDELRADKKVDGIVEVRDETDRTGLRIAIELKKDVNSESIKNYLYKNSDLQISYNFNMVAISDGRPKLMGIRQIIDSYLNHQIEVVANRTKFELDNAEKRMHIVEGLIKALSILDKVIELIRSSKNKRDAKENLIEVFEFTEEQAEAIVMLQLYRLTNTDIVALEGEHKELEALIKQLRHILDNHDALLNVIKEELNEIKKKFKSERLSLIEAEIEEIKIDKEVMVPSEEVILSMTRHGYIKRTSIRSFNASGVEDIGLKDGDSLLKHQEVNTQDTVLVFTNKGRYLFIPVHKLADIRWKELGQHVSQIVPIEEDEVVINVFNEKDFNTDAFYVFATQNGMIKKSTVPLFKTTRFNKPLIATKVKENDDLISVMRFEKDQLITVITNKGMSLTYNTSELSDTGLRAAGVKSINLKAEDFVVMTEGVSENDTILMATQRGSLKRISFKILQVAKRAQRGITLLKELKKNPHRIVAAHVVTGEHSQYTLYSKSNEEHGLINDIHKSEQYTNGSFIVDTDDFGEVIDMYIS
T1 sequence (P0C1S7 whole entry): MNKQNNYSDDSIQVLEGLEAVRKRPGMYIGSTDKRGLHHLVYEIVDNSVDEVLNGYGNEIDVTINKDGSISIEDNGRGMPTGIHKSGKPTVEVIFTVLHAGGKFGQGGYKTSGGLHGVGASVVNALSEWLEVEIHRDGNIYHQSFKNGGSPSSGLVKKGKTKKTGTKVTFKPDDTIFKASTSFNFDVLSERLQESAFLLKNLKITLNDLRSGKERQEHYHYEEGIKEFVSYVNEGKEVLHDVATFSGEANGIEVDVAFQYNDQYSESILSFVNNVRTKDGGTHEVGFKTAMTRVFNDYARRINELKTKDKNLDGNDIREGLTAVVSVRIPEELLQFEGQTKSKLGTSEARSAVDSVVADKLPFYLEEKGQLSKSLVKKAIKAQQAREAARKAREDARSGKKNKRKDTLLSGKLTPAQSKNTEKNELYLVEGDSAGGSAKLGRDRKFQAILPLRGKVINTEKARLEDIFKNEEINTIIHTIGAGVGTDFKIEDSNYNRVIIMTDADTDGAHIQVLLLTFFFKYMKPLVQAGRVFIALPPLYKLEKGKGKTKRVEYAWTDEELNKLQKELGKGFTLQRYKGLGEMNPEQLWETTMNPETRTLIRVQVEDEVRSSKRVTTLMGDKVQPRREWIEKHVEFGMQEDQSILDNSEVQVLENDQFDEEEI
Protocol: Briefly, 1 U of the enzyme (gyrase or topo IV, Inspiralis. Norwich, UK) isolated from S. aureus converts 0.5 mg of relaxed pBR322 DNA to the supercoiled form (gyrase) or decatenates 200 ng of kinetoplast DNA (topo IV). […] The reactions were terminated by adding an equal volume of STEB buffer (40% sucrose, 100 mM Tris–HCl pH 8, 10 mM EDTA, and 0.5 mg/mL bromophenol blue), followed by extraction with 1 volume of chloroform/isoamyl alcohol (24:1). The samples were vortexed and centrifuged, and 20 μL of the aqueous phase of each sample was loaded onto a 1% agarose gel and left for 30 min prior to electrophoresis to allow diffusion of salt. […] Gels were stained with ethidium bromide and visualized under UV light in a transilluminator (ChemiDoc MP, Bio Rad).

[7] = system: HaCaT cells; assay: Trypan blue exclusion assay; type: cell-based, human; conditions: for Cell number (% of control) / Cell number x 10^6: 72 h, compound at IC50; for impact on the number of live human keratinocytes: compounds at their IC50 for PC3 cells (2.02, 15.7, 4.8 μM)
Description: (§1) To monitor cell proliferation in response to long-term conjugate treatment, the trypan-blue exclusion assay was further performed. […] Thus, they exerted a cytostatic effect on them, suppressing their growth and proliferation. […]. […] […].
(§2) Figure 9 Trypan blue assay. The effect of compounds 3, 15, and 21 on cell number in PC3 and HaCaT cells. […] Data are expressed as the mean ± SD. ***p ≤ 0.001, **p ≤ 0.002, and *p ≤ 0.01, as compared to the control.
(§3) Figure 10 Trypan blue assay. The effect of compounds 3, 15, and 21 on viability in PC3 and HaCaT cells. […] Data are expressed as the mean ± SD. ***p ≤ 0.001, **p ≤ 0.01, and *p ≤ 0.05, as compared to the control.

[8] = system: PC3 cells; assay: Trypan blue exclusion assay; type: cell-based, human; conditions: PC3, 72 h, compound at IC50
Description: as §1, §2, §3

[9] = Trypan blue exclusion assay; type: cell-based, human; conditions: human; HaCaT, 72 h, compound at IC50
Description: as §1, §2, §3

[10] = system: HaCaT cells; assay: Annexin V-FITC/PI binding assay, flow cytometry; type: cell-based, human; conditions: 72 h, IC50 concentration; for Dead cells / Early apoptosis / Late apoptosis / Live cells: HaCaT
Protocol: (§4) The PC3 and HaCaT cells were cultured and harvested under the conditions mentioned in the Cell Culture section and seeded in 12-well plates (1 × 10^5 cells per well). […] The apoptotic effect was performed using the annexin V-FITC/propidium iodide (PI) apoptosis assay kit (Becton Dickinson, Pharmingen) according to the manufacturer’s instructions and analyzed by flow cytometry (Becton Dickinson). The cells which were annexin V-FITC-positive and PI-negative were identified as early apoptotic and both annexin V-FITC- and PI-positive as late apoptotic or necrotic. The experiment was repeated three times.

[11] = system: PC3 cells; assay: Annexin V-FITC/PI binding assay, flow cytometry; type: cell-based, human; conditions: IC50 concentration; for PC3 cells in late apoptosis or necrosis: 72 h; for Dead cells / Early apoptosis / Late apoptosis / Live cells: PC3, 72 h
Protocol: as §4

[12] = system: M. tuberculosis Spec 210; assay: microbe, parasite or virus in culture; type: cell-based, Mycobacterium tuberculosis
[13] = system: IL-6 level in HaCaT cells; assay: Interleukin-6 ELISA; type: cell-based, human; conditions: IC50 concentration, 72 h
Protocol: (§5) The level of interleukin-6 (IL-6) in PC3 and HaCaT cell lines was measured by commercial human IL-6 ELISA kits Diaclon SAS (Besancon Cedex, France). […] The untreated cells were used as the control. The IL-6 level in a cell culture supernatant was measured using an enzyme-linked immunosorbent assay in accordance with the manufacturer’s instruction. The experiment was repeated three times.

[14] = system: Staphylococci (standard strains); assay: MIC, standard Gram-positive strains as a panel; type: cell-based, S. aureus, S. epidermidis; conditions: for MIC: read-out: MIC toward standard Staphylococci (range over strains)
[15] = system: IL-6 level in PC3 cells; assay: Interleukin-6 ELISA; type: cell-based, human; conditions: PC3, IC50 concentration, 72 h
Protocol: as §5

[16] = standard Gram-positive strains of Table 1

| SMILES | IC50 [1] [µM] | lag phase elongated to [2] [h] | share of CP potency kept against standard Gram-negative rods [4] | MIC [4] [µg/mL] | dose that fully inhibited bacterial growth [5] [µg/mL] | IC50 [6] [µM] | Cell number (% of control) [7] | Cell number x 10^6 [7] | impact on the number of live human keratinocytes [7] | Cell number (% of control) [8] | Cell number x 10^6 [8] | Viability (%) [8] [%] | viability at 72 h [9] [%] | HaCaT cells in late apoptosis/necrosis [10] | Dead cells [10] [%] | Early apoptosis [10] [%] | Late apoptosis [10] [%] | Live cells [10] [%] | PC3 cells in late apoptosis or necrosis [11] [%] | Dead cells [11] [%] | also measured |
| --- | --- | --- | --- | --- | --- | --- | --- | --- | --- | --- | --- | --- | --- | --- | --- | --- | --- | --- | --- | --- | --- |
| O=C(O)c1cn(C2CC2)c2cc(N3CCN(C(=O)CCCCl)CC3)c(F)cc2c1=O [Compound 5, 7-[4-(4-Chlorobutyryl)-piperazin-1-yl]-1-cyclopropyl-6-fluoro-4-oxo-1,4-dihydro-quinoline-3-carboxylic Acid] | 7.34 | 6 | 30–60% | 0.025 to 0.2 (≈ 0.0574 to 0.459 µM) | ≥ 0.2 | 6.19 | – | – | – | – | – | – | – | – | – | – | – | – | – | – | eradication of the biofilm formed by E. coli [3]: approx. 20%; exponential phase shifted to ([5]; 0.03 μg/mL): 7 to 12 h; exponential phase shifted to ([5]; 0.05 μg/mL): 8 to 15 h |
| O=C(O)c1cn(C2CC2)c2cc(N3CCN(C(=O)CCCBr)CC3)c(F)cc2c1=O [Compound 10, 7-[4-(4-Bromobutyryl)-piperazin-1-yl]-1-cyclopropyl-6-fluoro-4-oxo-1,4-dihydro-quinoline-3-carboxylic Acid] | 16.4 | 9 | 60% | 0.025 to 0.1 (≈ 0.052 to 0.208 µM) | ≥ 0.2 | 10.4 | – | – | – | – | – | – | – | – | – | – | – | – | – | – | – |
| O=C(O)c1cn(C2CC2)c2cc(N3CCN(CCCCCCCCCCC(=O)N4CCN(c5cc6c(cc5F)c(=O)c(C(=O)O)cn6C5CC5)CC4)CC3)c(F)cc2c1=O [Compound 21, CP–Undecanoyl–CP Dimer] | – | – | – | – | – | – | 19.35 % of control | 0.3 ± 0.01 x 10^6 | negligible impact | 6.22 % of control | 0.2 ± 0.03 x 10^6 | 78 ± 1.50 | 94 ± 4.01 | 34.95% | 14.24 ± 3.78 | 10.52 ± 1.07 | 20.71 ± 4.34 | 54.53 ± 3.34 | 69.29 | 52.91 ± 3.99 | Early apoptosis [11]: 28.22 ± 0.98% and 28.22%; Late apoptosis [11]: 16.28 ± 2.80%; Live cells [11]: 2.59 ± 0.20%; fold more effective than the reference tuberculostatics [12]: 8–32 fold; effect on IL-6 in human keratinocytes [13]: stimulated human keratinocytes to produce IL-6 |
| O=C(O)c1cn(C2CC2)c2cc(N3CCN(C(=O)C4CC4)CC3)c(F)cc2c1=O [Compound 2, 7-(4-Cyclopropanecarbonyl-piperazin-1-yl)-1-cyclopropyl-6-fluoro-4-oxo-1,4-dihydro-quinoline-3-carboxylic Acid] | 22.3 | – | 30–60% | 0.025 to 0.2 (≈ 0.0626 to 0.501 µM) | – | 23.8 | – | – | – | – | – | – | – | – | – | – | – | – | – | – | MIC [14]: 0.05 to 0.4 µg/mL (≈ 0.125 to 1 µM); fold more active than CP toward standard Staphylococci [14, 16]: 1.25–10 fold |
| O=C(O)c1cn(C2CC2)c2cc(N3CCN(C(=O)CCC(F)(F)F)CC3)c(F)cc2c1=O [Compound 15, 7-[4-(4,4,4-Trifluorobutyryl)-piperazin-1-yl]-1-cyclopropyl-6-fluoro-4-oxo-1,4-dihydro-quinoline-3-carboxylic Acid] | – | – | – | – | – | – | 48.38 % of control | 0.8 ± 0.10 x 10^6 | negligible impact | 12.04 % of control | 0.3 ± 0.08 x 10^6 | 82 ± 2.64 | 90 ± 3.04 | did not indicate appreciable apoptosis-inducing action | 0.3 ± 0.01 | 11.63 ± 2.93 | 0.77 ± 0.05 | 87.32 ± 2.20 | 37.64 | 21.15 ± 3.29 | Early apoptosis [11]: 1.15 ± 0.10%; Late apoptosis [11]: 16.49 ± 2.65%; Live cells [11]: 61.21 ± 2.06%; decrease of IL-6 release as compared to the control [15]: 1.9 times; effect on IL-6 in human keratinocytes [13]: No significant pro- or anti-inflammatory properties; MIC [14, 16]: 0.2 µg/mL (≈ 0.439 µM) |
